Key:
Homo sapiens = species: Homo sapiens; assay: Inhibition of dual specificity Cell division cycle 25
[1] = Compound was evaluated for its activity against PTP1B (a tyrosine phosphatase)
[2] = molecular target: Dual specificity protein phosphatase 3 (Homo sapiens) (UniProt P51452); assay: Compound was evaluated for its activity against VHR
Dual specificity protein phosphatase 3 (Homo sapiens), sequence (P51452 whole entry, looked up): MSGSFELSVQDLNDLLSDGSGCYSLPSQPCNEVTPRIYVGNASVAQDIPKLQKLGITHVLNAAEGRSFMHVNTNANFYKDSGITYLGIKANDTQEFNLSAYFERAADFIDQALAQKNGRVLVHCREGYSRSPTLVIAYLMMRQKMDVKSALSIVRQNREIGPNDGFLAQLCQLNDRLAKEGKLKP

SMILES	Activity (Homo sapiens)	Activity [1]	Activity [2]
Cc1ccc(S(=O)(=O)CNC(=O)C(c2ccc(OCP(=O)(O)O)cc2)N(CCc2c[nH]c3ccccc23)C(=O)c2cc(Br)cc(Br)c2O)cc1 (centres undefined)	10 µM	95 µM	> 120 µM
CC(C)/C=C\CC(C)C(C(=O)NCC(=O)O)N(CCc1c[nH]c2ccccc12)C(=O)c1cc(Br)cc(Br)c1O (centres undefined)	15 µM		
O=C(O)CNC(=O)C(c1nccs1)N(Cc1ccc2c(c1)OCO2)C(=O)c1ccc(CP(=O)(O)O)cc1 (centres undefined)	35 µM	> 96 µM	> 9 µM
O=C(NC(Cc1ccc(O)cc1)C(=O)N(CCc1c[nH]c2ccccc12)C(C(=O)NCCN1CCOCC1)c1ccc(OCP(=O)(O)O)cc1)OCC1c2ccccc2-c2ccccc21 (centres undefined)	8 µM	16 µM	6.1 µM
O=C(NC1CCCCC1)C(c1ccnc2ccccc12)N(CCc1c[nH]c2ccccc12)C(=O)c1ccc(CP(=O)(O)O)cc1 (centres undefined)	16 µM	> 160 µM	87 µM
O=C(O)C(Oc1ccc(C(=O)N(Cc2ccc3c(c2)OCO3)C(C(=O)NC2CCCCC2)c2ccc(OC(C(=O)O)C(=O)O)cc2)cc1)C(=O)O (centres undefined)	3 µM	89 µM	9 µM
CC(C)=CCCC(C)C(C(=O)NC1CCCCC1)N(CCc1c[nH]c2ccccc12)C(=O)c1ccc(C(F)(F)P(=O)(O)O)cc1 (centres undefined)	27 µM		
O=C(O)C(Oc1ccc(C(C(=O)NC2CCCCC2)N(Cc2ccc3c(c2)OCO3)C(=O)c2ccc(CP(=O)(O)O)cc2)cc1)C(=O)O (centres undefined)	3 µM	107 µM	11 µM
CC(C)=CCCC(C)C(C(=O)NC1CCCCC1)N(CCc1c[nH]c2ccccc12)C(=O)c1ccc(CP(=O)(O)O)cc1 (centres undefined)	23 µM	61 µM	17 µM
CC(C)=CCCC(C)C(C(=O)NC1CCCCC1)N(Cc1ccc2c(c1)OCO2)C(=O)c1ccc(CP(=O)(O)O)cc1 (centres undefined)	23 µM	73 µM	19 µM
O=C(O)C(Oc1ccc(C(=O)N(Cc2ccc3c(c2)OCO3)C(C(=O)NC2CCCCC2)c2ccc(OCP(=O)(O)O)cc2)cc1)C(=O)O (centres undefined)	0.7 µM	82 µM	5 µM
